Measured values published in patent publication US20230241031A1, “Composition, Comprising Rip Kinase Inhibitor, For Preventing Hair Loss Or Promoting Hair Regrowth” (Epi Biotech Co., Ltd., priority 2019, published 2023).

Legend:
mouse vibrissae = experiment: Hair growth induction in organ-cultured mouse vibrissae; format: cell-based, mouse (C57BL/6 female mice); conditions: vibrissae cultured 3 days at 37° C.; for degree of hair growth induction (efficacy of promoting hair growth): vs untreated group; for degree of hair growth induction (effect of promoting hair growth): compared to inactive type necrostatin-1, FIG. 1; for degree of hair growth induction: siRNA treatment, vs control siRNA, FIG. 6
Experimental: Specifically, the vibrissae of C57BL/6 female mice were trimmed and organ cultured. […] The vibrissae of the three treatment groups were treated with 10 μM, respectively, and then cultured for 3 days in an incubator at 37° C.
(§1) Specifically, the vibrissae of C57BL/6 female mice were trimmed and organ cultured. The trimmed vibrissae were cultured in a 48-well plate so as to become one per well, and divided into a total of 3 groups: the untreated group (control group), the group treated with 1 μM sibiriline, and the group treated with 10 μM sibiriline. The vibrissae were treated, respectively, and then cultured for 3 days in an incubator at 37° C.
as §1, with “GSK963,” for “sibiriline,”, “GSK963.” for “sibiriline.”
as §1, with “of C57/BL6” for “of C57BL/6”, “of 4” for “of 3”, “μM GSK2982772,” for “μM sibiriline, and”, “μM GSK2982772, and the group treated with 50 μM GSK2982772.” for “μM sibiriline.”
as §1, with “the” for “the untreated”, “treated with RIPK1 siRNA,” for “(control group),”, “RIPK3 siRNA,” for “1 μM sibiriline,”, “control siRNA (control group) in Table 1.” for “10 μM sibiriline.”

C3H/HeN mice = experiment: Hair regrowth on the back of depilated mice after topical application; format: in vivo, mouse (C3H/HeN, male); conditions: 100 μl applied to the back, 13 days, FIG. 2
Description: The hairs of ten 6-week-old male C3H/HeN mice were shaved short using a depilatory machine, and the remaining hairs were completely removed using a depilatory agent, and then they were stabilized for one day before use in the experiment.
Mice were divided into 5 mice per group under the following conditions to conduct an experiment.
After 13 days, the hairs on the back of the mouse in which hair regrowth occurred were shaved using a razor, and then the hairs were obtained, and the weight was measured.

Q: For `CC(C)(C)C(=O)N1N=CCC1c1ccccc1` (stereo not shown) [GSK963], which “degree of hair growth induction (efficacy of promoting hair growth)” value (“degree … (efficacy of promoting hair growth)” below) (mouse vibrissae; 1 μM) is on record?
A: excellent efficacy of promoting hair growth

Q: What about the “degree … (efficacy of promoting hair growth)” value (mouse vibrissae; 10 μM) of the same molecule?
A: excellent efficacy of promoting hair growth

Q: How did the “degree … (efficacy of promoting hair growth)” value (mouse vibrissae; 1 μM) turn out when `CN1C(=O)[C@@H](NC(=O)c2nnc(Cc3ccccc3)[nH]2)COc2ccccc21` [GSK2982772] was run?
A: excellent efficacy of promoting hair growth

Q: And the “degree … (efficacy of promoting hair growth)” value (mouse vibrissae; 10 μM)?
A: excellent efficacy of promoting hair growth

Q: What about the “degree … (efficacy of promoting hair growth)” value (mouse vibrissae; 50 μM) of the same molecule?
A: excellent efficacy of promoting hair growth

Q: With `CN1C(=O)C(Cc2c[nH]c3ccccc23)NC1=S` (stereo not shown) [necrostatin-1] as the molecule, how does the “degree of hair growth induction (effect of promoting hair growth)” value (mouse vibrissae; 10 μM) read?
A: excellent effect of promoting hair growth compared to the inactive type necrostatin-1

Q: `CN1C(=O)NC(Cc2c[nH]c3c(Cl)cccc23)C1=O` (stereo not shown) [necrostatin-1s] was tested. Which “degree of hair growth induction (effect of promoting hair growth)” value (mouse vibrissae; 10 μM) did it give?
A: excellent effect of promoting hair growth compared to the inactive type necrostatin-1

Q: What about the “effect of inducing hair growth (appearance of hair growth and weight of the hair)” value (C3H/HeN mice; 100 μM, vs 2% minoxidil group) of the same molecule?
A: more excellent effect of inducing hair growth compared to the group administered with commercially available minoxidil

Q: And the “hair growth effect (appearance of hair growth and weight of the hair)” value (C3H/HeN mice; group administered with necrostatin-1s (10 μM or 100 μM), vs untreated control group)?
A: excellent hair growth effect compared to the untreated control group

Q: For `Oc1ccc(-c2cc3cccnc3[nH]2)cc1` [sibiriline], which “degree … (efficacy of promoting hair growth)” value (mouse vibrissae; 1 μM) is on record?
A: excellent efficacy of promoting hair growth

Q: What about the “degree … (efficacy of promoting hair growth)” value (mouse vibrissae; 10 μM) of the same molecule?
A: excellent efficacy of promoting hair growth

Q: For “RIPK1 siRNA: siRNA of SEQ ID NO: 1 and 2 capable of inhibiting RIP kinase expression (chain 1 GUCCUUGUGUUACCACAGA; chain 2 UCUGUGGUAACACAAGGAC; listed as RNA, chemistry not given here)”, which “degree of hair growth induction” value (mouse vibrissae) is on record?
A: hair growth was promoted

Q: How did the “degree of hair growth induction” value (mouse vibrissae) turn out when “RIPK3 siRNA: siRNA of SEQ ID NO: 3 and 4 capable of inhibiting RIP kinase expression (chain 1 CGAGUGAUGUCUACAGCUU; chain 2 AAGCUGUAGACAUCACUCG; listed as RNA, chemistry not given here)” was run?
A: hair growth was promoted
